From the supplement of paper PMC8671470

Experiments:
Assay in all cases: cell viability (% survival relative to DMSO control); higher = less cytotoxic
Details in all cases: 72 h
[1] = system: myeloid leukemia patient primary cells Pat.1
Summary of the method: (§1)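 Thawed, Ficoll-purified mononuclear cells from AML or CML patients in RPMI 1640 with 10% FBS were seeded at 10,000 cells/well on 384-well plates pre-printed with 70 compounds at five tenfold concentrations, 1–10,000 nM, in duplicate, for 72 h. Viability was read by CellTiter-Glo and normalised to DMSO and 10 μM proteasome-inhibitor wells. Where given, area under the curve came from four-parameter log-logistic fits (drc, PharmacoGx R packages).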

[2] = system: myeloid leukemia patient primary cells Pat.3
Summary of the method: as §1

[3] = system: myeloid leukemia patient primary cells Pat.6
Summary of the method: as §1

[4] = system: myeloid leukemia patient primary cells Pat.8
Summary of the method: as §1

Row | SMILES | cell viability ([1]; 1 nM) [%] | cell viability ([1]; 10 nM) [%] | cell viability ([1]; 100 nM) [%] | cell viability ([1]; 1000 nM) [%] | cell viability ([1]; 10000 nM) [%] | cell viability ([2]; 1 nM) [%] | cell viability ([2]; 10 nM) [%] | cell viability ([2]; 100 nM) [%] | cell viability ([2]; 1000 nM) [%] | cell viability ([2]; 10000 nM) [%] | cell viability ([3]; 1 nM) [%] | cell viability ([3]; 10 nM) [%] | cell viability ([3]; 100 nM) [%] | cell viability ([3]; 1000 nM) [%] | cell viability ([3]; 10000 nM) [%] | cell viability ([4]; 1 nM) [%] | cell viability ([4]; 10 nM) [%] | cell viability ([4]; 100 nM) [%] | cell viability ([4]; 1000 nM) [%] | cell viability ([4]; 10000 nM) [%]
1 | Clc1ccc(COC(Cn2ccnc2)c2ccc(Cl)cc2Cl)cc1 (stereo not given) [Econazole] | 83.3 | 77.2 | 93.6 | > 100 | 52.8 | 74.2 | 89.5 | 93 | 70.1 | 1.03 | 91.4 | 96 | 92.2 | 84.9 | 44.9 | 93.3 | 86.9 | 81 | > 100 | 85.3
2 | CCN(CC)CCN(Cc1ccc(-c2ccc(C(F)(F)F)cc2)cc1)C(=O)Cn1c(SCc2ccc(F)cc2)nc(=O)c2c1CCC2 [Darapladib] | 79.5 | 83 | 61.6 | 95.4 | < 0 | 81.4 | 90.8 | 70.5 | 54.4 | < 0 | 80.4 | 90 | 72.6 | 79.3 | 0.0489 | 62.6 | 85.8 | 77.8 | 86.2 | 1.84
3 | Cc1noc2c1-c1ccccc1C(c1ccc(Cl)cc1)=N[C@H]2CC(N)=O [CPI-0610] | 90.3 | 93.9 | 84.9 | 39.1 | 21.7 | > 100 | 79.3 | 68.4 | 22.7 | 15.6 | > 100 | 87.9 | > 100 | 87.9 | 69.7 | 93.5 | 78.8 | 96.1 | 70 | 82.7
4 | COc1c(C)c2c(c(O)c1C/C=C(\C)CCC(=O)O)C(=O)OC2 [Mycophenolic acid] | 78.4 | 96.8 | 85 | 93.9 | 87.3 | 65.5 | 81.3 | 99.4 | 56.5 | 47.4 | 83.4 | 97.6 | 81.8 | 93.2 | > 100 | 69.4 | 92.3 | 75.5 | 91.8 | 43.8
5 | CC(Cc1ccc(O)c(O)c1)C(C)Cc1ccc(O)c(O)c1 (stereo not given) [Masoprocol] | > 100 | 92.3 | 90.5 | 85.6 | 51.7 | 90.1 | 91.5 | 80.4 | 35.8 | 5.51 | 97.8 | 94.2 | > 100 | 72.2 | 33.9 | 97.6 | 84.9 | 95.6 | 69.7 | 6.74
6 | C[C@H]1O[C@@H](O[C@H]2[C@@H](O)C[C@H](O[C@H]3[C@@H](O)C[C@H](O[C@H]4CC[C@@]5(C)[C@H](CC[C@@H]6[C@@H]5C[C@@H](O)[C@]5(C)[C@@H](C7=CC(=O)OC7)CC[C@]65O)C4)O[C@@H]3C)O[C@@H]2C)C[C@H](O)[C@@H]1O [Digoxin] | 96.2 | 84.5 | 85.3 | 13.2 | 8.18 | 94.1 | 81.3 | 11.5 | 2.91 | 1.13 | 98 | 96 | 87 | 25.4 | 6.2 | 84.6 | 96.1 | 67.2 | 6.59 | 5.15
